Assay results reported in patent publication US9839690B2, “Singlet oxygen-labile linkers and methods of production and use thereof” (The Board of Regents of the University of Oklahoma, priority 2012, dated 2017).

Tests used:
[1] = Photophysical properties of selected compounds in DMSO; assay type: physicochemical
[2] = Relative rates of photooxidation of the linker in CMP-L-CA4 with ROS quenchers; assay type: physicochemical; conditions: 1.2 μmol each in CDCl3, 690 nm, 10 mW/cm^2
Description: The reaction mixture was irradiated by using diode laser (690 nm, 10 mW/cm^2). The oxidation of the olefin with SO was monitored every 5 min by the decrease of the olefinic peaks of the aminoacrylate in ^1H-NMR

[3] = Oxidation of aminoacrylate linker model compound with ROS quenchers; assay type: physicochemical; conditions: model compound 9 mM, CMP-OMe 9 mM, quencher 9 mM, 690 nm, 100 mW/cm^2
Description: To determine the effect of specific ROS quenchers on the oxidation of the aminoacrylate linker, the rate of oxidation of aminoacrylate linker was determined by ^1H-NMR using the vinyl proton of the aminoacrylate linker (FIG. 20). A solution of (E)-N-phenyl-3-(piperidin-1-yl)acrylamide (9 mM), a photosensitizer (CMP-OMe, 9 mM), a ROS quencher (0 or 9 mM) was in a CDCl3 solvent in a NMR tube was exposed to the irradiation (690 nm diode laser, 100 mW/cm^2) and ^1H-NMR was taken every 5 min. The ROS quencher was either a singlet oxygen quencher (DABCO or β-Carotene) or a superoxide quencher (1,4-Benzoquinone) and the photosensitizer was CMP-OMe (5-(4-methoxyphenyl)-10,15,20-triphenyl-21,23-dithiaporphyrin).

[4] = 1H-NMR of drugs and model linker compound with CMP-OMe before and after irradiation; assay type: physicochemical; conditions: 1H-NMR
Text: The cleavage of aminoacrylate linkers after irradiation was supported by the increased coumarin fluorescence of 9 by irradiation (FIGS. 14-21). The unique peak of each compound was integrated against the peak of CMP-OMe (four protons of CMP-OMe at 9.7 ppm, FIG. 14), which was known to be inert to singlet oxygen oxidation. […] However, we observed 77% decrease of the proton peak of the aminoacrylate linker after the irradiation (FIG. 21). […] PD 9 had negligible coumarin emission compared to that of free coumarin at the equimolar concentration. In the presence of 10 μM of 9, MCF-7 cells were incubated for 24 h to activate dPS. Then, the samples were irradiated by visible light (540±10 nm, 8 mW/cm^2, 30 min). […] The released free coumarin was also detected and quantified by HPLC based on the standard curve of free coumarin. As such, almost 99% of 9 released coumarin while only 64% of dPS of 9 were activated when irradiated.

MCF-7 cells [5] = assay: Dark toxicity, MTT (Example 5); assay type: cell-based
Description: It seemed that the bulky groups, CMP-L and CMP-NCL, reduced the cytotoxic activity of CA4, presumably through the interference of its binding to tubulin as estimated by the modeling study.
(§1) MCF-7 cells were maintained in minimum essential medium (α-MEM) supplemented with 10% bovine growth serum, 2 mM L-glutamine, 50 units/mL penicillin G, 50 μg/mL streptomycin and 1.0 μg/mL fungizone. MCF-7 cells (5,000 cells/well) were seeded on 96-well plates in the medium and then incubated for 24 h at 37° C. in 5% CO2. Stock solutions (2 mM) were prepared in DMSO. The stocks were further diluted with medium to get necessary final concentrations. The diluted solution (10 μL) was then added to each well (190 μL). The plates were incubated for 24 h and then removed from the incubator. For the phototoxicity study: The plate without a cover was placed on an orbital shaker (Lab-line, Barnstead International) and irradiated by using a diode laser (690 nm, 5.6 mW/cm^2) for 30 min. To ensure uniformity of the light during the irradiation, each plate was shaken gently on an orbital shaker. For the dark toxicity study: Plates were kept in the dark for 30 min, and then returned to the incubator. Cell viability was determined after 3 days by using the MTT assay. Briefly, a 10 μL solution of MTT (10 mg in 1 mL PBS buffer) was added to each well and the plate was incubated for 4 h. Then, the MTT solution was removed and the cells were dissolved in 200 μL of DMSO and the absorbance within each well was measured at 570 nm with background subtraction at 650 nm. The cell viability was then quantified by measuring the absorbance of the treated wells compared to that of the untreated wells (controls) and expressed as a percentage.

MCF-7 cells [6] = assay: Phototoxicity, MTT (Example 5); assay type: cell-based
Description: On the other hand, only a photodynamic effect could damage cells by [CMP-NCL-CA4+hv].
as §1, with “For the dark toxicity study: Plates were kept in the dark for 30 min, and then returned to the incubator.” left out, “Briefly, a 10 μL solution of MTT (10 mg in 1 mL PBS buffer) was added to each well and the plate was incubated for 4 h.” left out

tubulin = target: T1, tubulin (Sus scrofa, UniProt P02554); assay: Fluorescence-based tubulin polymerization assay; assay type: biochemical; conditions: 3 μM
T1 construct: purchased Cytoskeleton, Inc. BK011P
T1 sequence (P02554 whole entry): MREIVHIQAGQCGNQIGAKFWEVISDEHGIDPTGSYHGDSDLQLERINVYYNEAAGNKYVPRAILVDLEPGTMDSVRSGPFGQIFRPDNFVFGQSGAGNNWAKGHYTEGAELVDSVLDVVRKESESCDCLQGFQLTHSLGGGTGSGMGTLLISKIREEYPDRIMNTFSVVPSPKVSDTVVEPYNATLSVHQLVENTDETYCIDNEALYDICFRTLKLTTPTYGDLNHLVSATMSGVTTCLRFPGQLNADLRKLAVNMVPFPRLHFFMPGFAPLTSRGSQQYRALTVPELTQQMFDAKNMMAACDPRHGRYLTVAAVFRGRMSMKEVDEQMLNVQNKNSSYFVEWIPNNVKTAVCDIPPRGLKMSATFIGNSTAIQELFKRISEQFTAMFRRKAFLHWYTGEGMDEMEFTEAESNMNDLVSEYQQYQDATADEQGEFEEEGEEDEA
T1 sequence (P02550 whole entry partner): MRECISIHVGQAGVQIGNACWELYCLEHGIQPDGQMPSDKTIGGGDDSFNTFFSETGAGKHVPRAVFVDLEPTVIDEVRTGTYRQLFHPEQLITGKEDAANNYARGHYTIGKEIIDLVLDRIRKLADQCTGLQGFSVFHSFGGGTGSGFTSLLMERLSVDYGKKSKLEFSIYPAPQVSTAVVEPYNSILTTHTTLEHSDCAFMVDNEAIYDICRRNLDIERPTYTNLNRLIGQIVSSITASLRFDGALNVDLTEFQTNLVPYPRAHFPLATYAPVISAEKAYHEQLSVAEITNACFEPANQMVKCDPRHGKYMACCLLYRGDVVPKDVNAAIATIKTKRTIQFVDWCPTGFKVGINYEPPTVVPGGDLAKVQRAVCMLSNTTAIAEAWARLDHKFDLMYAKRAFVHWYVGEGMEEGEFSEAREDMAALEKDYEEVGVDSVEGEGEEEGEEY
Description: Paclitaxel and CA4 were used as positive control drugs (a polymerization enhancer and an inhibitor, respectively) in addition to the negative control group (FIG. 32).
The fluorescence-based tubulin polymerization was determined by using a kit supplied by Cytoskeleton, Inc. (cat #=BK011P). Its basic principle is that the fluorescence reporter increases as it is incorporated into microtubules during the course of polymerization. The assay was performed following the experimental procedure as described in version 2.1 of the tubulin polymerization assay kit manual. Briefly, the test drug (final concentration=3 μM) was added to a mixture of tubulin and GTP in a buffer solution, and the reaction mixture was incubated at 37° C. Fluorescence was monitored (excitation=360 nm and emission=450 nm) by using a fluorescence plate reader (SpectraMax Gemini EM, Molecular device). Paclitaxel and CA4 were included in the assay as positive controls in addition to the negative control (vehicle only).

[7] = literature (ref 88); cited from earlier work
[8] = literature (ref 79); cited from earlier work
MCF-7 cells [9] = assay: Dark toxicity, MTT cell viability (Example 4); assay type: cell-based; conditions: MCF-7, 96 hr, no irradiation
Description: MCF-7 cells (5,000 cells/well) were seeded in 96 well plates. After the plates were incubated for 24 hr, the culture medium was aspirated and the cells were washed with cold PBS (100 μL) once. Then, prodrug in the 200 μL culture media was added to cells. The final concentrations ranging from 1 nM to 1 μM were used to perform concentration dependent cell viability and 25 nM prodrug was used to perform time dependent drug release study. After 96 hr incubation, the cell viability was determined by MTT assay detailed below. The experiments were performed in triplicate. IC50 values were calculated with GraphPad Prism 5.
Cell viability was assessed by MIT assay.^89 In brief, after thoroughly washing the cells 2× with PBS buffer, the cells were treated with 200 μL 0.5 mg/mL MIT (3-(4,5-dimethylthiazol-2-yl)-2,5-diphenyltetrazolium bromide, a yellow tetrazole). Subsequently, the cells were incubated at 37° C. under a humidified atmosphere of 5% CO2 for 4 h. After 4 h of incubation, the solution from each well was taken out, and washed with PBS one time and added 100 μL DMSO. The plates were shaken at room temperature for 10 min and read immediately at 570 nm on a microplate reader (Spectra max, Molecular devices). Cell viability (%) was expressed as a ratio of treated cells to control cells.

[10] = Photooxidation of 1,2-diheteroatom-substituted olefins with CMP-OMe, 690 nm diode laser (Example 2); assay type: physicochemical
Description: In a NMR tube, an olefin (0.0048 mmol) was dissolved in CDCl3 (0.5 mL). The photosensitizer [5-(4-methoxyphenyl)-10,15,20-triphenyl-21-23-dithiaporphyrin, CMP-OMe, 3 mg, 0.0048 mmol] was added to this solution. Then, the reaction mixture was irradiated for 15 min using a diode laser (690 nm, 200 mW/cm^2). The reaction of olefins with singlet oxygen was monitored by the decrease of olefinic peaks in ^1H-NMR spectra. The formation of the photooxidation products were also determined by appearance of the formate (or thioformate) peaks in ^1H-NMR spectra.
To examine the oxidation rate of these electron-rich alkenes with singlet oxygen (Scheme 4), compounds 6, 8, and 10 were irradiated in the presence of 5-(4-methoxyphenyl)-10,15,20-triphenyl-21,23-dithiaporphyrin as a photosensitizer.^53 All experiments were performed following the standard procedure previously set with a slight modification by using a 690 nm diode laser source (200 mW/cm^2).^35 In the experiments, the amount of sensitizer used was not catalytic. Here, the ratio of olefin and photosensitizer used was 1:1 to mimic the situation of prodrug where the olefinic linker could be used for connecting one drug molecule to one photosensitizer molecule.^7,35 The reaction solutions were irradiated for 15 min and monitored every 5 min using olefinic peaks in ^1H-NMR each time to monitor the progress of the reactions. Upon the oxidation by singlet oxygen, the olefinic peaks decreased.

[11] = Photooxygenation of model compounds 2-16 with dithiaporphyrin photosensitizer, 690 nm diode laser (Example 3); assay type: physicochemical
Description: To evaluate the rate of oxidation by singlet oxygen, the model compounds 2-7 were irradiated by a diode laser (690 nm, 200 mW/cm2, 25 min) in the presence of the photosensitizer 5-(4-methoxyphenyl)-10,15,20-[…]-21,23-dithiaporphyrin (FIG. 11 and Table 5). The reaction of olefins with singlet oxygen was monitored by the decrease of olefinic proton peaks in the ^1H-NMR spectra. (Z)-1,2-Bis(phenylthio)ethylene was used as positive control. […] Oxidation of only the nitrogen analogues is probably due to electron donation from the nitrogen to the carbonyl group making the olefinic bond electron rich for attack by singlet oxygen.
In a NMR tube, an olefin (0.0048 mmol) was dissolved in CDCl3 (0.5 mL). The photosensitizer compound (32), 3 mg, 0.0048 mmol] was added to this solution. […] The reaction of olefins with singlet oxygen was monitored by the decrease of olefinic peaks in ^1H-NMR spectra. In the case of compound 14, 15 and 16 no photosensitizer was added.

[12] = 0 min, 690 nm diode laser, 200 mW/cm^2, CDCl3, no added photosensitizer for 14, 15, 16

## 5-(6) carboxy-fluorescein
[1]
  Extinction Coefficient: 80000 M⁻¹ cm⁻¹
  FQY (φ), fluorescence quantum yield: 0.90
  emax (emission maximum): 525 nm
  λmax (absorption maximum): 462 nm

## O=C1C=CC(=O)C=C1 [1,4-benzoquinone]
[2]
  Effect of ROS quencher on oxidation of aminoacrylate linker of CMP-L-CA4: did not have any effect on the oxidation of the aminoacrylate linker
[3]
  Effect of ROS quencher on oxidation of the aminoacrylate linker: did not make any delay of the oxidation of the linker

## Cc1cc(=O)oc2cc(O)ccc12 [7-hydroxy-4-methyl-coumarin]
[4]
  Oxidation under the irradiation condition: not oxidized at all
[1]
  Extinction Coefficient: 15800 M⁻¹ cm⁻¹
  FQY (φ), fluorescence quantum yield: 0.14
  emax (emission maximum): 378 nm
  λmax (absorption maximum): 325 nm

## COc1ccc(/C=C\c2cc(OC)c(OC)c(OC)c2)cc1OCCCN1CCN(C(=O)COc2ccc(-c3c4nc(c(-c5ccccc5)c5ccc(s5)c(-c5ccccc5)c5nc(c(-c6ccccc6)c6ccc3s6)C=C5)C=C4)cc2)CC1 [CMP-NCL-CA4]
MCF-7 cells [5]; MCF-7, dark, 3 days, read-out: IC50D (dark toxicity)
  IC50: 1800 nM
MCF-7 cells [5]; dark
  Reduction of cytotoxicity relative to CA4: 200 fold
MCF-7 cells [6]; IC50 dark vs irradiated
  Increase of cytotoxicity after irradiation: 1.7 fold
MCF-7 cells [6]; MCF-7, 690 nm, 5.6 mW/cm^2, 30 min, read-out: IC50 after irradiation (phototoxicity)
  IC50: 1060 nM
tubulin; 1 h incubation at 37° C.
  Inhibition of tubulin polymerization: 9%

## C1CN2CCN1CC2 [DABCO, 1,4-diazabicyclo[2.2.2]octane]
[2]
  Effect of ROS quencher on oxidation of aminoacrylate linker of CMP-L-CA4: dramatically delayed the oxidation of aminoacrylate
[7]
  Singlet oxygen quenching rate constant k: 2.6e+08 M⁻¹ s⁻¹
[3]
  Effect of ROS quencher on oxidation of the aminoacrylate linker: effectively delayed the oxidation of the aminoacrylate linker

## CCc1c2c(nc3ccc(O)cc13)-c1cc3c(c(=O)n1C2)COC(=O)[C@]3(O)CC [SN-38]
[8]
  Times more active than irinotecan: at least 1000 times
[4]
  Oxidation under the irradiation condition: not oxidized at all
MCF-7 cells [9]
  IC50: 170 nM

## C(=C/Sc1ccccc1)/Sc1ccccc1 [control, (Z)-1,2-Bis(phenylthio) ethene]
[10]; 0 min, CMP-OMe, 690 nm, 200 mW/cm^2, CDCl3
  Remaining olefins (%): 100%
[10]; 5 min
  Remaining olefins (%): 38%
[10]; 10 min
  Remaining olefins (%): 11%
[10]; 15 min
  Remaining olefins (%): 0%
[11]; [12]
  Percentile of remaining compound: 100
[11]; 5 min
  Percentile of remaining compound: 70
[11]; 10 min
  Percentile of remaining compound: 59
[11]; 15 min
  Percentile of remaining compound: 41
[11]; 20 min
  Percentile of remaining compound: 23
[11]; 25 min
  Percentile of remaining compound: 13
[11]; 25 min of irradiation
  Decrease of olefinic proton peaks (photo-oxidation): 87%

## CC(=O)O[C@H]1C(=O)[C@@]2(C)[C@H]([C@H](OC(=O)c3ccccc3)[C@]3(O)C[C@H](OC(=O)[C@H](O)[C@@H](NC(=O)c4ccccc4)c4ccccc4)C(C)=C1C3(C)C)[C@]1(OC(C)=O)CO[C@@H]1C[C@@H]2O [paclitaxel]
tubulin
  Pattern of kinetic trace of tubulin polymerization: enhancer

## CC1=C(/C=C/C(C)=C/C=C/C(C)=C/C=C/C=C(C)/C=C/C=C(C)/C=C/C2=C(C)CCCC2(C)C)C(C)(C)CCC1 [β-carotene]
[2]
  Effect of ROS quencher on oxidation of aminoacrylate linker of CMP-L-CA4: dramatically delayed the oxidation of aminoacrylate
[7]
  Singlet oxygen quenching rate constant k: 1.2e+10 M⁻¹ s⁻¹
[3]
  Effect of ROS quencher on oxidation of the aminoacrylate linker: effectively delayed the oxidation of the aminoacrylate linker

## (E)-((13S)-13-Methyl-17-oxo-7,8,9,11,12,13,14,15,16,17-decahydro-6H cyclopenta[a] phenanthren-3-yl)3-(4-((2-phenoxy-10,15,20-triphenyl-21,23-dithiaporphyrinacetoxy)methyl) piperidin-1-yl)acrylate [Compound 16 (Example 3)]
[11]; [12]
  Percentile of remaining compound: 100
[11]; 5 min
  Percentile of remaining compound: 60
[11]; 10 min
  Percentile of remaining compound: 10
[11]; GC-MS / SI
  Release of parent molecule after irradiation: successfully released Estrone
[11]; in 10 min
  Photo-oxidation: 90%
